Consider 20 compounds from patent US10882869B2, “Condensed heterocyclic compounds and pesticides” (NISSAN CHEMICAL CORPORATION, priority 2015, dated 2021).

Bounds are passed on as bounds.

What all share (format): in vivo
For one assay, the system named is Spodoptera litura. As to the kind of experiment: Insecticidal test on Spodoptera litura (cabbage leaves soaked). To be noted: 144 h, 500 ppm solution, 3rd-instar larvae, 6 days after, 25° C. The method, then: Leaves of cabbage were soaked in the solutions for about 10 seconds. After the soaking, the leaves were dried in air and placed in dishes. In each dish, five 3rd-instar larvae of Spodoptera litura were released, and the dishes were covered with lids and placed in an incubator at 25° C. 6 Days after, dead insects in the dishes were counted, and the mortality was calculated by using the same equation as in Test Example 1. The test was carried out in duplicate.

A further assay deals with Nilaparvata lugens. As to the kind of experiment: Insecticidal test on Nilaparvata lugens (rice sheaths soaked). To be noted: 144 h, 500 ppm solution, 3rd-instar larvae, 6 days after, 25° C. On the procedure:
Rice sheaths were soaked in the solutions for about 10 seconds. After the soaking, the rice sheaths were dried in air and put in test tubes. In each tube, five 3rd-instar larvae of Nilaparvata lugens were released, and the tubes were capped with sponge and placed in an incubator at 25° C. 6 Days after, dead insects in the test tubes were counted, and the mortality (%) (the number of dead insects÷the number of released insects×100) was calculated. The test was carried out in duplicate.

In the next assay the test system is Plutella xylostella. As to the kind of experiment: Insecticidal test on Plutella xylostella (cabbage leaves soaked). To be noted: 144 h, 500 ppm solution, 3rd-instar larvae, 6 days after, 25° C. The method, then:
Leaves of cabbage were soaked in the solutions for about 10 seconds. After the soaking, the leaves were dried in air and placed in dishes. In each dish, five 3rd-instar larvae of Plutella xylostella were released, and the dishes were covered with lids and placed in an incubator at 25° C. 6 Days after, dead insects in the dishes were counted, and the mortality was calculated by using the same equation as in Test Example 1. The test was carried out in duplicate.

Another assay deals with Myzus persicae. The experiment in a line: Insecticidal test on Myzus persicae (cabbage leaf spray). To be noted: 144 h, 500 ppm solution sprayed (2.5 mg/cm^2), apterous adults on cabbage leaves, 6 days after, 25° C. On the procedure: Wet absorbent cotton was laid on glass dishes having an inner diameter of 3 cm, and covered with leaves of cabbage cut into circles of the same diameter, and 4 apterous adults of Myzus persicae were released. […] The solutions were sprayed from a rotary spray tower (2.5 mg/cm^2), and the dishes were covered with lids and placed in an incubator at 25° C. 6 Days after, dead insects were counted, and the mortality was calculated by using the same equation as in Test Example 1. The test was carried out in duplicate.

A further assay concerns Ctenocephalides felis. The experiment in a line: Test on the effect on Ctenocephalides felis (thin film in glass container). To be noted: 96 h, application dose 10 μg/cm^2, adults, 4 days after release, 25° C. On the procedure:
350 μl of the solutions were applied to the bottoms and the side walls of glass containers with an inner wall surface area of 35 cm^2, and acetone was volatilized to prepare thin films of the compounds on the inner walls of the glass containers. Since the inner wall surface area of each glass container was 35 cm^2, the application dose was 10 μg/cm^2.
To each glass container, five adults (male and female) of Ctenocephalides felis were released, and the containers were covered with lids and placed in an incubator at 25° C. 4 Days after the release of the fleas, dead fleas were counted, and the mortality was calculated by using the same equation as in Test Example 1.

Usually mortality stands for the share of the test organisms that died. Read a high mortality as fewer survivors. `CCSc1c(-c2nc3cc(C(F)(F)F)ncc3n2C)nc2cc(C(F)(F)F)ccn12` [1-8-005b, 2-[3-(ethylthio)-7-(trifluoromethyl)imidazo[1,2-a]pyridin-2-yl]-3-methyl-6-(trifluoromethyl)-3H-imidazo[4,5-c]pyridine] yielded a mortality at 500 ppm with Spodoptera litura not below 90%.

Turning to `CCS(=O)(=O)c1c(-c2nc3cc(S(=O)(=O)C(F)(F)F)ccc3o2)nc2ccc(C(F)(F)F)cn12` [1-2-001a, 2-[3-(ethylsulfonyl)-6-(trifluoromethyl)imidazo[1,2-a]pyridin-2-yl]-5-[(trifluoromethyl)sulfonyl]benz[d]oxazole], the mortality at 500 ppm in the assay on Nilaparvata lugens, with Plutella xylostella, in the assay on Spodoptera litura and in the assay on Myzus persicae was not below 90% in each case. This compound also displayed a mortality at 10 µg/cm2 with Ctenocephalides felis not below 50%.

`CCSc1c(-c2nc3cc(C(F)(F)F)cnc3n2C)nc2cc(C(F)(F)F)c(Br)cn12` [1-1-023b, 2-[6-bromo-3-(ethylthio)-7-(trifluoromethyl)imidazo[1,2-a]pyridin-2-yl]-3-methyl-6-(trifluoromethyl)-3H-imidazo[4,5-b]pyridine]: the mortality at 500 ppm in the assay with Plutella xylostella and in the assay with Spodoptera litura was not below 90% in each case. Besides, in the assay with Ctenocephalides felis, the mortality at 10 µg/cm2 was not below 50%.

`CCSc1c(-c2nc3cc(C(F)(F)F)cnc3n2C)nc2sc(C(F)(F)F)cn12` [2-1-001b, 5-(ethylthio)-6-[3-methyl-6-(trifluoromethyl)-3H-imidazo[4,5-b]pyridin-2-yl]-2-(trifluoromethyl)imidazo[2,1-b]thiazole]: the mortality at 500 ppm in the assay on Plutella xylostella and in the assay with Spodoptera litura was not below 90% throughout.

`CCSc1c(-c2nc3cc(C(F)(F)F)cnc3n2C)nc2c(C(F)(F)F)cc(I)cn12` [1-1-066b, 2-[3-(ethylthio)-6-iodo-8-(trifluoromethyl)imidazo[1,2-a]pyridin-2-yl]-3-methyl-6-(trifluoromethyl)-3H-imidazo[4,5-b]pyridine]: in the assay on Ctenocephalides felis, the mortality at 10 µg/cm2 was not below 50%.

As to `CCSc1c(-n2cc3cnc(C(F)(F)F)cc3n2)nc2cc(C(F)(F)F)ccn12` [1-11-001b, 2-[3-(ethylthio)-7-(trifluoromethyl)imidazo[1,2-a]pyridin-2-yl]-6-(trifluoromethyl)-2H-pyrazolo[4,3-c]pyridine], the mortality at 500 ppm in the assay with Nilaparvata lugens, in the assay on Plutella xylostella, in the assay on Spodoptera litura and in the assay on Myzus persicae was not below 90% in each case. Moreover, the mortality at 10 µg/cm2 in the assay on Ctenocephalides felis is not below 50%.

For the compound `CCS(=O)(=O)c1c(-c2nc3cc(SC(F)(F)F)cnc3n2C)nc2cc(C(F)(F)F)ccn12` [1-1-027a, 2-[3-(ethylsulfonyl)-7-(trifluoromethyl)imidazo[1,2-a]pyridin-2-yl]-3-methyl-6-((trifluoromethyl)thio)-3H-imidazo[4,5-b]pyridine], the mortality at 500 ppm with Plutella xylostella, in the assay with Spodoptera litura and with Myzus persicae was not below 90% in each case. In the assay on Ctenocephalides felis, this compound yielded a mortality at 10 µg/cm2 not below 50%.

`CCS(=O)(=O)c1c(-c2nc3cc(C(F)(F)C(F)(F)F)ncn3c2Br)nc2ccc(C(F)(F)F)cn12` [1-3-010a, 3-bromo-2-[3-(ethylsulfonyl)-6-(trifluoromethyl)imidazo[1,2-a]pyridin-2-yl]-7-(perfluoroethyl)imidazo[1,2-c]pyrimidine]: the mortality at 500 ppm in the assay on Spodoptera litura and with Myzus persicae was not below 90% throughout. In addition, the mortality at 10 µg/cm2 in the assay on Ctenocephalides felis was not below 50%.

In the case of `CCSc1c(-c2nc3cc(C(F)(F)F)nc(C)c3n2C)nc2ccc(C(F)(F)F)cn12` [1-8-003b, 2-[3-(ethylthio)-6-(trifluoromethyl)imidazo[1,2-a]pyridin-2-yl]-3,4-dimethyl-6-(trifluoromethyl)-3H-imidazo[4,5-c]pyridine], the mortality at 500 ppm in the assay with Plutella xylostella and with Spodoptera litura was not below 90% throughout.

Compound `CCS(=O)(=O)c1c(-c2nc3cc(C(F)(F)F)cnc3n2C)nc2ncc(C(F)(F)F)cn12` [1-1-054a, 2-[3-(ethylsulfonyl)-6-(trifluoromethyl)imidazo[1,2-a]pyrimidin-2-yl]-3-methyl-6-(trifluoromethyl)-3H-imidazo[4,5-b]pyridine] came in with a mortality at 500 ppm in the assay with Plutella xylostella not below 90%.

Turning to `CCS(=O)(=O)c1c(-c2cn3cc(C(F)(F)F)ncc3n2)nc2ccc(C(F)(F)F)cn12` [1-6-002a, 2-[3-(ethylsulfonyl)-6-(trifluoromethyl)imidazo[1,2-a]pyridin-2-yl]-6-(trifluoromethyl)imidazo[1,2-a]pyrazine], the mortality at 500 ppm in the assay with Plutella xylostella, in the assay on Spodoptera litura and with Myzus persicae was not below 90% each time.

With `CCS(=O)(=O)c1c(-c2nc3cc(C(F)(F)F)cnc3n2C)nc2sc(C(F)(F)F)cn12` [2-1-001a, 5-(ethylsulfonyl)-6-[3-methyl-6-(trifluoromethyl)-3H-imidazo[4,5-b]pyridin-2-yl]-2-(trifluoromethyl)imidazo[2,1-b]thiazole], the mortality at 500 ppm in the assay on Nilaparvata lugens, with Plutella xylostella, with Spodoptera litura and with Myzus persicae was not below 90% in each case. In the assay with Ctenocephalides felis, this compound displayed a mortality at 10 µg/cm2 not below 50%.

On to `CCS(=O)(=O)c1c(-c2cn3ccc(C(F)(F)F)cc3n2)nc2ccc(C(F)(F)F)cn12` [1-5-002a, 3-(ethylsulfonyl)-6,7′-bis(trifluoromethyl)-2,2′-biimidazo[1,2-a]pyridine], for which the mortality at 500 ppm with Nilaparvata lugens, with Plutella xylostella, with Spodoptera litura and in the assay on Myzus persicae was not below 90% throughout. This compound yielded a mortality at 10 µg/cm2 in the assay on Ctenocephalides felis not below 50%.

As to `CCSc1c(-c2nc3ccc(C(F)(F)F)nc3n2C)nc2cc(C(F)(F)F)ccn12` [1-1-030b, 2-[3-(ethylthio)-7-(trifluoromethyl)imidazo[1,2-a]pyridin-2-yl]-3-methyl-5-(trifluoromethyl)-3H-imidazo[4,5-b]pyridine], the mortality at 500 ppm in the assay with Plutella xylostella and with Spodoptera litura was not below 90% each time.

As to `CCS(=O)(=O)c1c(-c2nc3cc(C(F)(F)F)cnc3s2)nc2cc(C(F)(F)F)ccn12` [1-13-001a, 2-[3-(ethylsulfonyl)-7-(trifluoromethyl)imidazo[1,2-a]pyridin-2-yl]-6-(trifluoromethyl)thiazolo[5,4-b]pyridine], the mortality at 500 ppm in the assay on Plutella xylostella and in the assay on Spodoptera litura was not below 90% each time.

For `CCS(=O)(=O)c1c(-c2nc3cc(C(F)(F)F)cnc3n2C)nc2cc(C(F)(F)F)c(Br)cn12` [1-1-023a, 2-[6-bromo-3-(ethylsulfonyl)-7-(trifluoromethyl)imidazo[1,2-a]pyridin-2-yl]-3-methyl-6-(trifluoromethyl)-3H-imidazo[4,5-b]pyridine], the mortality at 500 ppm with Nilaparvata lugens, in the assay with Plutella xylostella, with Spodoptera litura and in the assay on Myzus persicae was not below 90% each time. For the same compound, the mortality at 10 µg/cm2 in the assay on Ctenocephalides felis is not below 50%.

Consider `CCSc1c(-c2nc3cnc(C(F)(F)F)cc3n2C)nc2cc(Cl)ccn12` [1-9-003b, 2-[7-chloro-3-(ethylthio)imidazo[1,2-a]pyridin-2-yl]-1-methyl-6-(trifluoromethyl)-1H-imidazo[4,5-c]pyridine], for which the mortality at 500 ppm with Plutella xylostella is not below 90%. The same compound gave a mortality at 10 µg/cm2 in the assay on Ctenocephalides felis not below 50%.

As for `CCS(=O)(=O)c1c(-c2cn3cc(C(F)(F)F)sc3n2)nc2ccc(C(F)(F)F)cn12` [1-12-001a, 6-[3-(ethylsulfonyl)-6-(trifluoromethyl)imidazo[1,2-a]pyridin-2-yl]-2-(trifluoromethyl)imidazo[2,1-b]thiazole], the mortality at 500 ppm in the assay on Plutella xylostella, in the assay on Spodoptera litura and with Myzus persicae was not below 90% each time. In the assay on Ctenocephalides felis, this compound yielded a mortality at 10 µg/cm2 not below 50%.

As to `CCSc1c(-n2cc3ncc(C(F)(F)F)cc3n2)nc2cc(C(F)(F)F)ccn12` [1-10-002b, 2-[3-(ethylthio)-7-(trifluoromethyl)imidazo[1,2-a]pyridin-2-yl]-6-(trifluoromethyl)-2H-pyrazolo[4,3-b]pyridine], the mortality at 500 ppm in the assay with Plutella xylostella, in the assay on Spodoptera litura and in the assay with Myzus persicae was not below 90% in each case. Further, in the assay with Ctenocephalides felis, the mortality at 10 µg/cm2 was not below 50%.

Turning to `CCS(=O)(=O)c1c(-c2cn3cnc(C(F)(F)C(F)(F)F)cc3n2)nc2ccc(C(F)(F)F)cn12` [1-3-008a, 2-[3-(ethylsulfonyl)-6-(trifluoromethyl)imidazo[1,2-a]pyridin-2-yl]-7-(perfluoroethyl)imidazo[1,2-c]pyrimidine], the mortality at 500 ppm in the assay on Plutella xylostella and in the assay with Spodoptera litura was not below 90% each time. In the assay with Ctenocephalides felis, this compound gave a mortality at 10 µg/cm2 not below 50%.
